Drawing on PubChem BioAssay (NCI), this text covers GI50 and TGI for 15 molecules.

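Cells were grown in 96-well plates and exposed to each compound for 48 hours at five concentrations; endpoints were interpolated linearly between bracketing concentrations, or set to the highest concentration if not reached. GI50: concentration for 50% inhibition of growth. TGI denotes the concentration required for complete inhibition of growth.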 Some results are limits rather than exact numbers.

Experiment in all cases: DTP human tumour cell line panel, 48 h
Assay [1] has as its system TK-10 renal.
The test system of assay [2] is SF-268 CNS.
Assay [3] has as its system HCT-116 colon.
In assay [4] the test system is HOP-92 NSCLC.
Assay [5] concerns OVCAR-8 ovarian.
The test system of assay [6] is UACC-62 melanoma.
For assay [7], the system named is SNB-19 CNS.
Assay [8] deals with BT-549 breast.
For assay [9], the system named is 786-0 renal.

For `O=C(Nc1ccc(-n2cc(-c3ccncc3)c(-c3ccc(O)c(Cl)c3)n2)cc1)Nc1cc(C(F)(F)F)cc(C(F)(F)F)c1`, the GI50 (commonly the concentration that inhibits growth by half) was 3.55 µM in [1]; 4.37 µM in assay [2]; 3.78 µM in assay [3]; 1.64 µM in assay [4]; 3.44 µM in assay [5]; 3.02 µM in [6]. Also, the GI50 in assay [7] was 4.45 µM. Moreover, the TGI (in general, the concentration at which net growth stops) is 13.6 µM in [1]; 16 µM in [2]; 13.7 µM in assay [3]; 5.74 µM in assay [4]; 11.7 µM in assay [5]; 10.6 µM in assay [6]. For the same molecule, the TGI in assay [7] was determined as 16.5 µM.

As to `CC1(C)C(=O)/C(=C/c2ccccc2)C(C)(C)C1(C)C`, the TGI in assay [1], in assay [8], in assay [3], in assay [9], in [4] and in [5] was more than 100 µM each time. The TGI in [6] and in [7] was more than 100 µM in each case.

On to `O=C(Nc1cccc2ccccc12)c1cc2ccccc2oc1=O`, for which the TGI in [2] is more than 100 µM; in assay [8], more than 100 µM; in [3], more than 100 µM; in assay [9], 50.3 µM; in assay [4] it was more than 100 µM; in assay [5], more than 100 µM. The total growth inhibition concentration (TGI) was more than 100 µM in [6] and 85.1 µM in assay [7].

`COC(=O)Nc1cc(OCCCOC(C)=O)c2[nH]c(C(=O)OC)cc2c1C[C@H](O)CO`: the TGI in assay [1], in assay [8], in assay [3], in [9], in assay [4] and in assay [5] was more than 100 µM in each case. For the same molecule, the TGI in assay [6] and in assay [7] was more than 100 µM in each case.

On to `NCCCNc1nc2ccccc2c2c(=O)c3cc(Cl)ccc3sc12`, for which the GI50 was 2.18 µM in assay [1], 13.5 µM in assay [8], 1.28 µM in assay [4] and 1.67 µM in [6]. Moreover, the TGI in [1] came out at 3.68 µM; in assay [8], 46.2 µM; in assay [4], 3.35 µM; in assay [6] it was 3.16 µM.

In the case of `COC1=C(OC)C(=O)C(Cc2c(Cl)nc3sccn23)=C(C)C1=O`, the TGI is 26.6 µM in assay [1]; 30.4 µM in assay [2]; 27.5 µM in assay [8]; 41.3 µM in assay [3]; 33.2 µM in [9]; 26.2 µM in [5]. Besides, the TGI in assay [6] was 20.6 µM; in assay [7], 28.1 µM.

Regarding `Cc1nc(C(=Nc2ccc(Br)cc2)Nn2cnnc2)no1`, the TGI in assay [8], in assay [3], in assay [9], in [4], in assay [5] and in assay [6] was more than 100 µM in each case. The molecule further registered a TGI in assay [7] of more than 100 µM.

`Cc1ccc(S(=O)(=O)OCCN(CCOS(=O)(=O)c2ccc(C)cc2)c2ccc(C=O)cc2)cc1`: the TGI in assay [1] was more than 100 µM; in assay [2] it was more than 100 µM; in [8] it was more than 100 µM; in [3] it was more than 100 µM; in assay [4] it was 75.3 µM; in assay [5], more than 100 µM. The total growth inhibition concentration (TGI) is 39.5 µM in assay [6] and more than 100 µM in assay [7].

With `Cc1ccc(S(=O)(=O)N/N=c2/sc3ccccc3n2C)cc1`, the concentration for total growth inhibition (TGI) in assay [1], in assay [2], in [3], in [9], in assay [4] and in assay [5] was more than 100 µM in each case. Moreover, the TGI in assay [6] and in assay [7] was more than 100 µM throughout.

`COc1ccc(S(=O)(=O)NC(CCC(=O)NC(N)=O)C(=O)NC(N)=O)cc1` (configuration not stated): the TGI in assay [1], in assay [8], in assay [3], in [9], in [4] and in assay [5] was more than 100 µM in each case. The TGI in assay [6] and in [7] was more than 100 µM each time.

Turning to `CN(C)c1cccc2c(S(=O)(=O)NCCN)cccc12`, the TGI in assay [2], in [3], in [9], in assay [4], in [6] and in [7] was more than 100 µM in each case.

Turning to `[N-]=[N+]=CC(=O)C1CCN(c2ccccc2)C1=O` (configuration not stated), the TGI in [1], in assay [2], in assay [8], in assay [3], in [9] and in assay [5] was more than 10 µM throughout. The total growth inhibition concentration (TGI) in assay [6] and in assay [7] was more than 10 µM throughout.

On to `O=C(N/N=C/c1ccccc1)c1c(F)c(F)c(F)c(F)c1F`, for which the TGI in [1], in [2], in assay [8], in [3], in assay [4] and in assay [5] was more than 100 µM each time. Besides, the TGI in assay [6] and in [7] was more than 100 µM each time.

With `O=S(Nc1ccccc1)c1ccc(Cl)cc1` (configuration not stated), the TGI is more than 100 µM in [1]; 82.9 µM in assay [2]; more than 100 µM in [8]; more than 100 µM in assay [3]; more than 100 µM in assay [9]; more than 100 µM in assay [5]. Further, the TGI was 90 µM in [6] and more than 100 µM in [7].

Regarding `Nc1c(C(=O)O)c2ccc([N+](=O)[O-])cc2c(=O)n1-c1nc2ccccc2s1`, the concentration for total growth inhibition (TGI) in assay [2], in assay [8], in assay [3], in assay [9], in [5] and in assay [6] was more than 100 µM in each case. This molecule gave a TGI in assay [7] of more than 100 µM.
